Assay results published in PMC11593002 (Current Issues in Molecular Biology, 2024).
Several values for one entry are separate records, joined by “and”; a condition that tells them apart may be missing. Equal values may be shown once. Entries after “also recorded” stand apart in the source; their conditions may differ.

Legend:
MDA-MB-231 [1] = test: MTT-dye reduction antiproliferative assay, MDA-MB-231; format: cell-based
Source text: (§1) Breast cell lines (MCF-10A, MCF-7, and MDA-MB-231) were purchased from the American Type Culture Collection—ATCC (Manassas, VA, USA). MCF-7 and MDA-MB-231 were cultivated in Dulbecco’s modified Eagle’s medium (DMEM), supplemented with 10% fetal bovine serum (FBS), 1% sodium pyruvate, and 1% MEM non-essential amino acids (NEAA) without antibiotics. The non-tumorigenic cell line (MCF-10A) was cultivated in DMEM medium (Sigma-Aldrich, St. Louis, MO, USA) and supplemented with 10% FBS, 1% sodium pyruvate, 1% non-essential amino acids (NEAA), 20 ng/mL human epidermal growth factor (hEGF), 10 μg/mL insulin, and 0.5 μg/mL hydrocortisone without antibiotics. All cell lines were maintained in a humidified atmosphere with 5% CO2 at 37 °C.
(§2) The antiproliferative activity was tested via using the standard MTT-dye reduction assay described by Mosmann. The method is based on the metabolism of the tetrazolium salt MTT to insoluble formazan. The formazan absorption was registered using a microplate reader at λ = 540 nm. The measured absorption is an indicator of cell viability and metabolic activity.

MCF-10A = test: MTT-dye reduction antiproliferative assay, MCF-10A; format: cell-based; conditions: for IC50: Homo sapiens
Source text: as §1, §2

MCF-7 [2] = test: MTT-dye reduction antiproliferative assay, MCF-7; format: cell-based; conditions: for increase in IC50: drug + Iscador Qu, concentration not given
Source text: as §1, §2

MDA-MB-231 [3] = test: Cell cycle analysis by propidium iodide staining (FACS), MDA-MB-231; format: cell-based; conditions: for effect on cell cycle of combination vs anticancer drug alone: drug + Iscador Qu (selected combinations); for effect on cell cycle: treatment alone
Method: (§3) After trypsinization, the cells (MCF7, MDA-MB-231, and MCF10A) were resuspended in medium + 10% FCS and centrifuged (1000 rpm, 5 min); then, the pellet was suspended in PBS (1 mL) and fixed with EtOH. After suspension in 2.5 mL pre-cold 70% EtOH, the cells were incubated on ice for 15 min. The staining procedure was as follows: The pellet was suspended in a 500 μL PI solution in PBS (final concentration of PI 1 μg/mL) and 0.1 mg/mL RNAse A, and 0.05% Triton X-100 was added. Following the incubation for 10 min at 37 °C, the cells were transferred to the flow cytometer, and cell fluorescence was measured. The samples were measured by flow cytometry (LSR II, BD Biosciences, Franklin Lakes, NJ, USA) and analyzed using BD FACS DIVA software v. 6.1.3 (BD Biosciences). The control samples of all cell lines underwent the same treatment but without the adding any anticancer drugs or Iscador Qu.
(§4) In the search of the mechanism of action, the cell cycle arrest induced after treatment with the selected combinations was analyzed. The cell aliquots were collected, and FACS analyses were used to detect the effects of the treatments. A propidium iodide staining assay was performed (Figures S1 and S2).

microtubule = tested on: microtubule; set-up: method as in PMID 7670132; conditions: cited from earlier work
MCF-7 [4] = test: Cell cycle analysis by propidium iodide staining (FACS), MCF-7; format: cell-based; conditions: for effect on cell cycle of combination vs anticancer drug alone: drug + Iscador Qu (selected combinations); for effect on cell cycle: mono treatment
Method: as §3, §4

[5] = MDA-MB-231, drug + Iscador Qu 40 µg/mL vs drug alone
[6] = MDA-MB-231, drug + Iscador Qu 80 µg/mL vs drug alone
[7] = drug + Iscador Qu 10 µg/mL vs drug alone
[8] = drug + Iscador Qu 20 µg/mL vs drug alone
[9] = Iscador Qu both concentrations (50 or 100 µg/mL) or not specified
[10] = drug + Iscador Qu 50 µg/mL vs drug alone
[11] = drug + Iscador Qu 100 µg/mL vs drug alone
[12] = higher Iscador Qu concentration (20 µg/mL)
[13] = Iscador Qu both concentrations (10 and 20 µg/mL) or not specified
[14] = MDA-MB-231, Iscador Qu both concentrations (40 and 80 µg/mL) or not specified

With `O=c1[nH]cc(F)c(=O)[nH]1` [5-Fluorouracyl, 5-Fluorouracil] the IC50 (MDA-MB-231 [1]; Homo sapiens, MDA-MB-231, drug alone) was 2.04 µM, the “fold decrease in IC50” value (MDA-MB-231 [1]; [5]) was 1.2 fold and the “fold decrease in IC50” value (MDA-MB-231 [1]; [6]) was 1.5 fold. The “reduction in IC50” value (MDA-MB-231 [1]; [6]) was “about 30%”, the “lesser reduction in IC50 in MDA-MB-231 compared to MCF-7” value (MDA-MB-231 [1]; combination with Iscador Qu) was 33% and the “effect of combined treatment with Iscador Qu on IC50 / antiproliferative effect” value (shortened to “effect … on IC50 / antiproliferative effect”) (MCF-10A; Iscador Qu 50 µg/mL) was “did not change the antiproliferative properties”. For the same molecule, the “effect … on IC50 / antiproliferative effect” value (MCF-10A; Iscador Qu 100 µg/mL) was “slightly decreased”, the IC50 (MCF-7 [2]; Homo sapiens, MCF7, drug alone) was 6.79 µM and the “fold decrease in IC50” value (MCF-7 [2]; [7]) was 1.5 fold. The “fold decrease in IC50” value (MCF-7 [2]; [8]) was 2.7 fold and the “reduction in IC50” value (MCF-7 [2]; [8]) was roughly 65%.

For `N.N.[Cl][Pt][Cl]` [Cisplatin, cis-diamminedichloroplatinum (II)], the “Relative Change of IC50 (%)” value (MDA-MB-231 [1]; [5]) was 56.77%, the “Relative Change of IC50 (%)” value (MDA-MB-231 [1]; [6]) was 43.80% and the “increase in IC50” value (MDA-MB-231 [1]; [6]) was 44%. The “fold increase in IC50 (reduced antiproliferative effect)” value (MDA-MB-231 [1]; MDA-MB-231, drug + Iscador Qu, concentration not given) was 1.5 fold and 1.6 fold, the “effect … on IC50 / antiproliferative effect” value (MCF-10A; [9]) was “enhanced the antiproliferative effect” and the “Relative Change of IC50 (%)” value (MCF-7 [2]; [7]) was 8.36%. The “Relative Change of IC50 (%)” value (MCF-7 [2]; [8]) was −29.37%, the “reduction in IC50” value (MCF-7 [2]; [8]) was 30% and the “effect on cell cycle of combination vs anticancer drug alone” value (“effect … vs anticancer drug alone” below) (MDA-MB-231 [3]) was “did not alter the effect”. The “effect on cell cycle” value (MDA-MB-231 [3]) was “blocked the cells in the S phase”.

With `CC(=O)O[C@@]12CO[C@@H]1C[C@H](O)[C@@]1(C)C(=O)[C@H](O)C3=C(C)[C@@H](OC(=O)[C@H](O)[C@@H](NC(=O)OC(C)(C)C)c4ccccc4)C[C@@](O)([C@@H](OC(=O)c4ccccc4)[C@H]21)C3(C)C` [Docetaxel] the “fold decrease in IC50” value (MDA-MB-231 [1]; [5]) was “more than 2 fold”, the “fold decrease in IC50” value (MDA-MB-231 [1]; [6]) was 4 fold and the “reduction in IC50” value (MDA-MB-231 [1]; [6]) was 72%. The “potency as an inhibitor of microtubule depolymerization compared to Paclitaxel” value (microtubule) was 2 fold, the IC50 (MCF-10A; drug + Iscador Qu 50 µg/mL) was roughly 0.0042 µM and the IC50 (MCF-10A; drug + Iscador Qu 100 µg/mL) was roughly 0.0042 µM. For the same molecule, the IC50 (MCF-10A; single treatment with drug) was 0.00518 µM, the “effect … on IC50 / antiproliferative effect” value (MCF-10A; [9]) was “slightly reduced” and the “fold decrease in IC50” value (MCF-10A; [10]) was 1.2 fold. The “fold decrease in IC50” value (MCF-10A; [11]) was 1.2 fold, the “effect … on IC50 / antiproliferative effect” value (MCF-7 [2]; [12]) was “very slight IC50 decrease” and the “effect … on IC50 / antiproliferative effect” value (MCF-7 [2]; low Iscador Qu concentration (10 µg/mL)) was “IC50 increase”. For the same molecule, the “effect … vs anticancer drug alone” value (MDA-MB-231 [3]) was “did not alter the effect” and the “effect on cell cycle” value (MDA-MB-231 [3]) was “cell cycle arrest in the G0 phase”.

With `COc1cccc2c1C(=O)c1c(O)c3c(c(O)c1C2=O)C[C@@](O)(C(=O)CO)C[C@@H]3O[C@H]1C[C@H](N)[C@H](O)[C@H](C)O1` [Doxorubicin] the “reduction in IC50 dose” value (MDA-MB-231 [1]; [5]) was 21%, the “fold decrease in IC50” value (MCF-10A; [10]) was “about 2 fold” and the “fold decrease in IC50” value (MCF-10A; [11]) was “about 2 fold”. The “fold decrease in IC50” value (MCF-7 [2]; [7]) was “about 2 fold”, the “reduction in IC50 dose” value (MCF-7 [2]; [7]) was 50% and the “fold decrease in IC50” value (MCF-7 [2]; [8]) was “about 2 fold”.

With `COc1cccc2c1C(=O)c1c(O)c3c(c(O)c1C2=O)C[C@@](O)(C(=O)CO)C[C@@H]3O[C@H]1C[C@H](N)[C@@H](O)[C@H](C)O1` [Epirubicin] the “fold decrease in IC50” value (MDA-MB-231 [1]; [5]) was 2 fold, the “fold decrease in IC50” value (MDA-MB-231 [1]; [6]) was 2 fold and the “reduction in IC50” value (MDA-MB-231 [1]; [6]) was 47%. The IC50 (MCF-10A; drug alone) was 387 µM, the “fold decrease in IC50” value (MCF-10A; [11]) was 2 fold and the “effect … on IC50 / antiproliferative effect” value (MCF-7 [2]; [13]) was “did not exhibit significant sensitivity; also recorded: No effect”.

With `CCc1c2c(nc3ccc(OC(=O)N4CCC(N5CCCCC5)CC4)cc13)-c1cc3c(c(=O)n1C2)COC(=O)[C@]3(O)CC` [Irinotecan] the “effect … on IC50 / antiproliferative effect” value (MDA-MB-231 [1]; [14]) was “very slight IC50 decrease; also recorded: No significant alteration in IC50”, the “effect … on IC50 / antiproliferative effect” value (MCF-10A; [9]) was “did not affect IC50” and the “effect … on IC50 / antiproliferative effect” value (MCF-7 [2]; [13]) was “did not affect IC50; also recorded: No effect”.

For `CN(Cc1cnc2nc(N)nc(N)c2n1)c1ccc(C(=O)N[C@@H](CCC(=O)O)C(=O)O)cc1` [Methotrexate], the “fold decrease in IC50” value (MDA-MB-231 [1]; [6]) was 1.5 fold, the “reduction in IC50” value (MDA-MB-231 [1]; [6]) was “about 30%” and the “effect … on IC50 / antiproliferative effect” value (MCF-10A; Iscador Qu 50 µg/mL) was “did not reduce the IC50 dose”. For the same molecule, the “effect … on IC50 / antiproliferative effect” value (MCF-10A; Iscador Qu 100 µg/mL) was “slightly increased”, the “effect … on IC50 / antiproliferative effect” value (MCF-7 [2]; [13]) was “No effect” and the “effect … on IC50 / antiproliferative effect” value (MCF-7 [2]; Iscador Qu both concentrations (10 and 20 µg/mL) or not specified, listed as methotrexate) was “did not exhibit any sensitivity”.

With `O=C(c1cc(Cc2n[nH]c(=O)c3ccccc23)ccc1F)N1CCN(C(=O)C2CC2)CC1` [Olaparib] the “effect … on IC50 / antiproliferative effect” value (MDA-MB-231 [1]; MDA-MB-231, Iscador Qu 40 µg/mL) was “negative treatment effect”, the “effect … on IC50 / antiproliferative effect” value (MDA-MB-231 [1]; [14]) was “increase in IC50 dose” and the “increase in IC50” value (MDA-MB-231 [1]; [6]) was 22%. The “effect … vs anticancer drug alone” value (MCF-7 [4]) was “no significant difference”, the “effect on cell cycle” value (MCF-7 [4]) was “arrest in the G2/M phase” and the “effect … on IC50 / antiproliferative effect” value (MCF-10A; [9]) was “slight decrease in IC50 dose”. The “effect … on IC50 / antiproliferative effect” value (MCF-7 [2]; [13]) was “antagonistic effect; also recorded: increase in IC50 dose”, the “increase in IC50” value (MCF-7 [2]) was 37% and the “effect … on IC50 / antiproliferative effect” value (MCF-7 [2]; [12]) was “negative treatment effect”.

With `O=C1[O][Pt]2([NH][C@@H]3CCCC[C@H]3[NH]2)[O]C1=O` [Oxaliplatin] the “effect … on IC50 / antiproliferative effect” value (MDA-MB-231 [1]; [14]) was “increased the antiproliferative effect”, the “Relative Change of IC50 (%)” value (MDA-MB-231 [1]; [5]) was −48.45% and the “fold decrease in IC50” value (MDA-MB-231 [1]; [5]) was 1.9 fold. The “Relative Change of IC50 (%)” value (MDA-MB-231 [1]; [6]) was −69.56%, the “fold decrease in IC50” value (MDA-MB-231 [1]; [6]) was 3.3 fold and the “reduction in IC50” value (MDA-MB-231 [1]; [6]) was 70%. For the same molecule, the “effect … vs anticancer drug alone” value (MCF-7 [4]) was “no significant difference”, the “effect on cell cycle” value (MCF-7 [4]) was “arrest in the G2/M phase” and the “effect … on IC50 / antiproliferative effect” value (MCF-10A; [9]) was “increased the antiproliferative effect”. For the same molecule, the “effect … on IC50 / antiproliferative effect” value (MCF-7 [2]; [13]) was “increased the antiproliferative effect”, the “Relative Change of IC50 (%)” value (MCF-7 [2]; [7]) was −47.30% and the “fold decrease in IC50” value (MCF-7 [2]; [7]) was roughly 2 fold. The “Relative Change of IC50 (%)” value (MCF-7 [2]; [8]) was −80.76%, the “fold decrease in IC50” value (MCF-7 [2]; [8]) was 5.2 fold and the “reduction in IC50” value (MCF-7 [2]; [8]) was 81%.

For `CN(C)C(=O)c1cc2cnc(Nc3ccc(N4CCNCC4)cn3)nc2n1C1CCCC1` [Ribociclib], the “effect … on IC50 / antiproliferative effect” value (MDA-MB-231 [1]; [14]) was “did not significantly affect; also recorded: No significant alteration in IC50”, the “effect … on IC50 / antiproliferative effect” value (MCF-10A; [9]) was “did not significantly affect” and the “fold decrease in IC50” value (MCF-7 [2]; [7]) was 2 fold. The “fold decrease in IC50” value (MCF-7 [2]; [8]) was 3 fold and the “reduction in IC50” value (MCF-7 [2]; [8]) was roughly 65%.

In the case of `CC/C(=C(\c1ccccc1)c1ccc(OCCN(C)C)cc1)c1ccccc1` [Tamoxifen], the “increase in IC50” value (MCF-7 [2]) is reported as 31%.
